According to patent US5496697A, “Methods and apparatus for detecting the effect of cell affecting agents on living cells” (priority 1993, dated 1996):

Experiments:
Dx5 = conditions: previously characterized; cited from earlier work
MDCK cells = experiment: metabolic rate of MDCK cells grown on the silicon sensor surface; assay type: cell-based, canine; conditions: 3 μM epinephrine, primary introduction

In the case of `COc1cccc2c1C(=O)c1c(O)c3c(c(O)c1C2=O)C[C@@](O)(C(=O)CO)C[C@@H]3O[C@H]1C[C@H](N)[C@H](O)[C@H](C)O1` [doxorubicin], the “resistance of Dx5” value (Dx5) is listed as “resistant”.
With `CNC[C@H](O)c1ccc(O)c(O)c1` [epinephrine] the “change of metabolic rate vs. control rate” value (MDCK cells) was “did not significantly alter the metabolic rate”.
In the case of `CC[C@]1(O)C[C@H]2CN(CCc3c([nH]c4ccccc34)[C@@](C(=O)OC)(c3cc4c(cc3OC)N(C=O)[C@H]3[C@@](O)(C(=O)OC)[C@H](OC(C)=O)[C@]5(CC)C=CCN6CC[C@]43[C@@H]65)C2)C1` [vincristine], the “resistance of Dx5” value (Dx5) is listed as “resistant”.
